In patent US20130209515A1, “ANTI-INFECTIVE AND IMMUNOMODULATORY COMPOUNDS” (priority 2005, published 2013):

Test system: P. aeruginosa
Test: P. aeruginosa growth kinetics (spectrophotometric analysis at 600 nm)
Assay type: cell-based, Pseudomonas aeruginosa
Details: 2 mM compound, followed over 26 hours at 600 nm (FIG. 4)
Source text: P. aeruginosa strains include wild-type (PA14, see Rahme et al., Science 268:1899-1902, 1995); a PA14 mvfR mutant (Cao et al., Proc. Natl. Acad. Sci. USA 98:14613-14618, 2001); a pqsE deletion mutant, generated via pEX18Ap allelic replacement by using sucrose selection (Hoang et al., Gene 212:77-86, 1998), resulting in a 570-bp nonpolar deletion covering 65% of the sequence (Déziel et al. PNAS); and the pqsA (U479) TnphoA mutant obtained from the PA14 Transposon Insertion Mutant Database. Bacteria were grown in LB broth or on 1.5% Bacto-agar (Difco) LB plates. Freshly plated cells served as inoculum.
P. aeruginosa was grown in the presence of 2 mM of 2′-aminoacetophenone (2AA), 3′-aminoacetophenone (3AA), 4′-aminoacetophenone (4AA), or 2′-nitroacetophenone (2NA), or in the absence of any of these compounds (control). Bacterial growth was followed over 26 hours by spectrophotometric analysis at 600 nm.
Bacterial growth was also followed over 35 hours by spectrophotometric analysis at 600 nm.

CC(=O)c1ccccc1N [2AA, 2′-aminoacetophenone]
Bacterial growth: only slightly retarded
